# Patent US6737383B1, “Herbicidal oxadiazolidines” (priority 1999, dated 2004)
# How the values were obtained:
# bedstraw = assay: Test B pre/postemergence bedstraw; type: in vivo, Galium aparine
# In short: (§1)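 Test chemicals in a non-phytotoxic solvent mixture with surfactant were sprayed preemergence onto planted seeds and postemergence onto plants 2 to 18 cm tall (1- to 4-leaf stage). After twelve to sixteen days in a greenhouse, injury was visually rated against untreated controls from 0 (no effect) to 10 (complete control).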
# crabgrass = assay: Test B pre/postemergence crabgrass; type: in vivo, Digitaria sanguinalis
# In short: as §1
# cocklebur = assay: Test B pre/postemergence cocklebur; type: in vivo, Xanthium strumarium
# In short: as §1
# sugar beet = assay: Test B pre/postemergence sugar beet; type: in vivo, Beta vulgaris
# In short: as §1
# corn = assay: Test B pre/postemergence corn; type: in vivo, Zea mays
# In short: as §1
# wild oat = assay: Test B pre/postemergence wild oat; type: in vivo, Avena fatua
# In short: as §1
# giant foxtail = assay: Test B pre/postemergence giant foxtail; type: in vivo, Setaria faberii
# In short: as §1
# duck salad = assay: Test B flood test duck salad; type: in vivo, Heteranthera limosa
# In short: (§2)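 Read-out is a visual response score from 0 (no effect) to 10 (complete control), assigned by comparison with untreated controls. Treatment was applied at the 2-leaf stage, and plants stayed in the greenhouse for twelve to sixteen days before scoring.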
# morningglory = assay: Test B pre/postemergence morningglory; type: in vivo, Ipomoea hederacea
# In short: as §1
# pigweed = assay: Test B pre/postemergence pigweed; type: in vivo, Amaranthus retroflexus
# In short: as §1
# surinam grass = assay: Test B pre/postemergence surinam grass; type: in vivo, Brachiaria decumbens
# In short: as §1
# blackgrass = assay: Test B pre/postemergence blackgrass; type: in vivo, Alopecurus myosuroides
# In short: as §1
# smallflower flatsedge = assay: Test B flood test smallflower flatsedge; type: in vivo, Cyperus difformis
# In short: as §2
# purple nutsedge = assay: Test B pre/postemergence purple nutsedge; type: in vivo, Cyperus rotundus
# In short: as §1
# rice = assay: Test B flood test rice; type: in vivo, Oryza sativa
# In short: as §2
# soybean = assay: Test B pre/postemergence soybean; type: in vivo, Glycine max
# In short: as §1
# [1] = Postemergence, Rate 62 g/ha, scale 0 to 10, 0 is no effect, 10 is complete control
# [2] = Postemergence, Rate 250 g/ha, scale 0 to 10, 0 no effect, 10 complete control
# [3] = Preemergence, Rate 62 g/ha, scale 0 to 10, 0 is no effect, 10 is complete control
# [4] = Preemergence, Rate 125 g/ha, scale 0 to 10 (0 no effect, 10 complete control)
# [5] = Preemergence, Rate 250 g/ha, scale of 0 to 10 where 0 is no effect and 10 is complete control
# [6] = Preemergence, Rate 500 g/ha, scale 0 (no effect) to 10 (complete control)
# [7] = Rate 125 g/ha, Postemergence, scale 0 to 10, 0 no effect, 10 complete control
# [8] = Rate 500 g/ha, Postemergence, 0 to 10 scale (0 no effect, 10 complete control)
# [9] = Rate 125 g/ha, Postemergence section (flood test species), scale 0 to 10, 0 no effect, 10 complete control
# [10] = Rate 500 g/ha, Postemergence section of Table B, 0 to 10 scale (0 no effect, 10 complete control)
# [11] = flood test, listed under Postemergence, Rate 250 g/ha, scale 0 to 10, 0 no effect, 10 complete control
smiles,measurement,setting,value
CCN(CC)C(=O)n1oc(=O)n(-c2cc(Cl)cc(Cl)c2)c1=O [Compound 11],Bedstraw plant response rating,bedstraw; [1],0
same,Bedstraw plant response rating,bedstraw; [2],0
same,"Plant response rating, Bedstraw",bedstraw; [3],0
same,"Plant response rating, Bedstraw",bedstraw; [4],0
same,"Plant response rating, Bedstraw",bedstraw; [5],0
same,Bedstraw plant response rating,bedstraw; [6],0
same,Bedstraw plant response rating,bedstraw; [7],0
same,Bedstraw plant response rating,bedstraw; [8],0
same,Crabgrass plant response rating,crabgrass; [1],0
same,Crabgrass plant response rating,crabgrass; [2],0
same,"Plant response rating, Crabgrass",crabgrass; [3],0
same,"Plant response rating, Crabgrass",crabgrass; [4],0
same,"Plant response rating, Crabgrass",crabgrass; [5],0
same,Crabgrass plant response rating,crabgrass; [6],8
same,Crabgrass plant response rating,crabgrass; [7],0
same,Crabgrass plant response rating,crabgrass; [8],0
same,Cocklebur plant response rating,cocklebur; [1],0
same,Cocklebur plant response rating,cocklebur; [2],0
same,"Plant response rating, Cocklebur",cocklebur; [3],0
same,"Plant response rating, Cocklebur",cocklebur; [4],0
same,"Plant response rating, Cocklebur",cocklebur; [5],0
same,Cocklebur plant response rating,cocklebur; [6],0
same,Cocklebur plant response rating,cocklebur; [7],0
same,Cocklebur plant response rating,cocklebur; [8],0
same,Sugarbeets plant response rating,sugar beet; [1],0
same,Sugarbeets plant response rating,sugar beet; [2],0
same,"Plant response rating, Sugarbeets",sugar beet; [3],0
same,"Plant response rating, Sugarbeets",sugar beet; [4],0
same,"Plant response rating, Sugarbeets",sugar beet; [5],0
same,Sugarbeets plant response rating,sugar beet; [6],0
same,Sugarbeets plant response rating,sugar beet; [7],0
same,Corn plant response rating,corn; [1],0
same,Corn plant response rating,corn; [2],0
same,"Plant response rating, Corn",corn; [3],0
same,"Plant response rating, Corn",corn; [4],0
same,"Plant response rating, Corn",corn; [5],0
same,Corn plant response rating,corn; [6],0
same,Corn plant response rating,corn; [7],0
same,Corn plant response rating,corn; [8],0
same,Wild oats plant response rating,wild oat; [1],0
same,Wild oats plant response rating,wild oat; [2],0
same,"Plant response rating, Wild oats",wild oat; [4],0
same,"Plant response rating, Wild oats",wild oat; [5],0
same,Wild oats plant response rating,wild oat; [6],0
same,Wild oats plant response rating,wild oat; [7],0
same,Giant foxtail plant response rating,giant foxtail; [1],0
same,Giant foxtail plant response rating,giant foxtail; [2],0
same,"Plant response rating, Giant foxtail",giant foxtail; [3],0
same,"Plant response rating, Giant foxtail",giant foxtail; [4],0
same,"Plant response rating, Giant foxtail",giant foxtail; [5],0
same,Giant foxtail plant response rating,giant foxtail; [6],3
same,Giant foxtail plant response rating,giant foxtail; [7],0
same,Giant foxtail plant response rating,giant foxtail; [8],0
same,Ducksalad plant response rating,duck salad; [1],0
same,Ducksalad plant response rating,duck salad; [9],0
same,Ducksalad plant response rating,duck salad; [10],0
same,Ducksalad plant response rating,duck salad; [11],0
same,Morningglory plant response rating,morningglory; [1],0
same,Morningglory plant response rating,morningglory; [2],0
same,"Plant response rating, Morningglory",morningglory; [3],0
same,"Plant response rating, Morningglory",morningglory; [4],0
same,"Plant response rating, Morningglory",morningglory; [5],0
same,Morningglory plant response rating,morningglory; [6],0
same,Morningglory plant response rating,morningglory; [7],0
same,Morningglory plant response rating,morningglory; [8],0
same,Redroot pigweed plant response rating,pigweed; [1],0
same,Redroot pigweed plant response rating,pigweed; [2],0
same,"Plant response rating, Redroot pigweed",pigweed; [3],0
same,"Plant response rating, Redroot pigweed",pigweed; [4],0
same,"Plant response rating, Redroot pigweed",pigweed; [5],0
same,Redroot pigweed plant response rating,pigweed; [6],0
same,Redroot pigweed plant response rating,pigweed; [7],0
same,Redroot pigweed plant response rating,pigweed; [8],0
same,B. signalgrass plant response rating,surinam grass; [1],0
same,B. signalgrass plant response rating,surinam grass; [2],0
same,"Plant response rating, B. signalgrass",surinam grass; [3],0
same,"Plant response rating, B. signalgrass",surinam grass; [4],0
same,"Plant response rating, B. signalgrass",surinam grass; [5],0
same,B. signalgrass plant response rating,surinam grass; [6],0
same,B. signalgrass plant response rating,surinam grass; [7],0
same,B. signalgrass plant response rating,surinam grass; [8],0
same,Blackgrass plant response rating,blackgrass; [1],0
same,Blackgrass plant response rating,blackgrass; [2],0
same,"Plant response rating, Blackgrass",blackgrass; [3],0
same,"Plant response rating, Blackgrass",blackgrass; [4],0
same,"Plant response rating, Blackgrass",blackgrass; [5],0
same,Blackgrass plant response rating,blackgrass; [6],0
same,Blackgrass plant response rating,blackgrass; [7],0
same,Blackgrass plant response rating,blackgrass; [8],0
same,S. Flatsedge plant response rating,smallflower flatsedge; [1],0
same,S. Flatsedge plant response rating,smallflower flatsedge; [9],0
same,S. Flatsedge plant response rating,smallflower flatsedge; [11],0
same,Nutsedge plant response rating,purple nutsedge; [1],0
same,Nutsedge plant response rating,purple nutsedge; [2],0
same,"Plant response rating, Nutsedge",purple nutsedge; [3],0
same,"Plant response rating, Nutsedge",purple nutsedge; [4],0
same,"Plant response rating, Nutsedge",purple nutsedge; [5],0
same,Nutsedge plant response rating,purple nutsedge; [6],0
same,Nutsedge plant response rating,purple nutsedge; [7],0
same,Nutsedge plant response rating,purple nutsedge; [8],0
same,Rice plant response rating,rice; [1],0
same,Rice plant response rating,rice; [9],0
same,Rice plant response rating,rice; [10],0
same,Rice plant response rating,rice; [11],0
same,Soybean plant response rating,soybean; [1],0
same,Soybean plant response rating,soybean; [2],0
same,"Plant response rating, Soybean",soybean; [3],0
same,"Plant response rating, Soybean",soybean; [4],0
same,"Plant response rating, Soybean",soybean; [5],0
same,Soybean plant response rating,soybean; [6],0
same,Soybean plant response rating,soybean; [7],0
